Experimental data from patent US20100016396A1, “PYRAZOLE COMPOUND” (priority 2007, published 2010).

The molecules below were run against T1, PPARγ-RXRα heterodimer (Homo sapiens, UniProt P37231) (assay: PPARγ-RXRα heterodimer ligand activity (luciferase reporter in PPARγ:RXRα:4ERPP/CHO-K1 cells)). Conditions: luciferase induction ratio, 1 day culture, concentration showing 50% of the maximum induction ratio.
T1 construct: expressed in transfected cells; host or cells: CHO-K1
T1 sequence (P37231 1-505): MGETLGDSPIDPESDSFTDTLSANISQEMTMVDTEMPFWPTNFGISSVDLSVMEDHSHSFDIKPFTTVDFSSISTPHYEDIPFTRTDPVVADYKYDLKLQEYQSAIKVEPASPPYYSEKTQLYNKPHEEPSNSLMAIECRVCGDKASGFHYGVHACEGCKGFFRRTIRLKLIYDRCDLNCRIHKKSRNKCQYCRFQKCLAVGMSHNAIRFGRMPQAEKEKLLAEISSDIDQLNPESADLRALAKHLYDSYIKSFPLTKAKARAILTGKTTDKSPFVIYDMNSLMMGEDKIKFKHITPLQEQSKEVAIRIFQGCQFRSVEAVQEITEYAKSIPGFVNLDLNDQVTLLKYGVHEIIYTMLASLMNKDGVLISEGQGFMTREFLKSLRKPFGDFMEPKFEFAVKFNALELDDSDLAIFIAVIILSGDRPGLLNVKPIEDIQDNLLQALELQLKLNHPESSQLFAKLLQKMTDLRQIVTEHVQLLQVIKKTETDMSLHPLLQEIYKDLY
T1 sequence (P19793 1-462 partner): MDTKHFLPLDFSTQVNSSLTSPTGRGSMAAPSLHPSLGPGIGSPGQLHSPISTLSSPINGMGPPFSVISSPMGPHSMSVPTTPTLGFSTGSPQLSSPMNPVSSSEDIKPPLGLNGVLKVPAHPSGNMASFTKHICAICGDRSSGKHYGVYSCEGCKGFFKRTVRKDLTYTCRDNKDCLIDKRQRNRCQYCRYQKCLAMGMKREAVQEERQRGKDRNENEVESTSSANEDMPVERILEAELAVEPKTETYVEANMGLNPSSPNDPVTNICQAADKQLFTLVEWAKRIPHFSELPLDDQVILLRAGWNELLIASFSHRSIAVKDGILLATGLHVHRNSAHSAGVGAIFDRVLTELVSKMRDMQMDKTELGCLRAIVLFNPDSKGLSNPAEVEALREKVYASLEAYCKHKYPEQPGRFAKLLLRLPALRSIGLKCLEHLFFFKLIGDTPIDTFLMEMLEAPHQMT
Assay type: cell-based
Method: PPARγ:RXRα:4ERPP/CHO-K1 cells described in WO03/099793 were cultured in hamF12 medium [manufactured by Life Technologies, Inc., USA] supplemented with 10% fetal bovine serum [manufactured by Life Technologies, Inc., USA], plated on a 96 well white half area plate [manufactured by Corning Coster Corporation, USA] at 1×10^4 cells/well and cultured overnight in a carbon dioxide gas incubator at 37° C.
The medium was removed from the 96 well white half area plate, 45 μl of hamF12 medium containing 0.1% fatty acid-free bovine serum albumin (BSA) and 5 μl of a test compound were added, and the cells were cultured in a carbon dioxide gas incubator at 37° C. for 1 day. The medium was removed, and 20 μl of PicaGene 7.5 (manufactured by Wako Pure Chemical Industries, Ltd.) diluted 2-fold with HBSS (HANKS' BALANCED SALT SOLUTION) [manufactured by BIO WHITTAKER, USA] was added. After stirring, the luciferase activity was measured using a 1420 ARVO Multilabel Counter [manufactured by Perkin Elmer Inc., USA].
The induction ratio was calculated from the luciferase activity of each test compound relative to the luciferase activity of the test compound non-administration group as 1. The concentration of the test compound and the induction ratio were analyzed using PRISM [manufactured by GraphPad Software, Inc., USA] and EC50 value (concentration of compound showing 50% of the maximum induction ratio) of the test compound was calculated.
An EC50 of 24 nM was found for `Cc1nn(C)c(Oc2cc(O[C@@H](C)C(=O)O)c(Cl)cc2Cl)c1C` [Example 1, (2S)-2-{2,4-dichloro-5-[(1,3,4-trimethyl-1H-pyrazol-5-yl)oxy]phenoxy}propionic acid] in this work.
An EC50 of 5 nM was found for `C=Cc1c(C)nn(C)c1Oc1cc(O[C@@H](C)C(=O)O)c(Cl)cc1Cl` [Example 14, (2S)-2-{2,4-dichloro-5-[(1,3-dimethyl-4-vinyl-1H-pyrazol-5-yl)oxy]phenoxy}propionic acid] in this work.
An EC50 of 3.7 nM was found for `C=Cc1c(C(F)(F)F)nn(C)c1Oc1cc(O[C@@H](C)C(=O)O)c(Cl)cc1Cl` [Example 20, (2S)-2-(2,4-dichloro-5-{[1-methyl-3-(trifluoromethyl)-4-vinyl-1H-pyrazol-5-yl]oxy}phenoxy)propionic acid] in this work.
An EC50 of 5.8 nM was found for `C[C@H](Oc1cc(Oc2c3ccccc3nn2C)c(Cl)cc1Cl)C(=O)O` [Example 30, (2S)-2-{2,4-dichloro-5-[(2-methyl-2H-indazol-3-yl)oxy]phenoxy}propionic acid] in this work.
An EC50 of 9.3 nM was found for `C[C@H](Oc1cc(Oc2c3c(nn2C)CCCC3)c(Cl)cc1Cl)C(=O)O` [Example 31, (2S)-2-{2,4-dichloro-5-[(2-methyl-4,5,6,7-tetrahydro-2H-indazol-3-yl)oxy]phenoxy}propionic acid] in this work.
An EC50 of 2.4 nM was found for `C=Cc1c(CCC)nn(C)c1Oc1cc(O[C@@H](C)C(=O)O)c(Cl)cc1Cl` [Example 41, (2S)-2-{2,4-dichloro-5-[(1-methyl-3-propyl-4-vinyl-1H-pyrazol-5-yl)oxy]phenoxy}propionic acid] in this work.
An EC50 of 4.6 nM was found for `C=Cc1c(C(C)C)nn(C)c1Oc1cc(O[C@@H](C)C(=O)O)c(Cl)cc1Cl` [Example 43, (2S)-2-{2,4-dichloro-5-[(3-isopropyl-1-methyl-4-vinyl-1H-pyrazol-5-yl)oxy]phenoxy}propionic acid] in this work.
An EC50 of 13 nM was found for `Cc1c(C(F)(F)F)nn(C)c1Oc1cc(O[C@@H](C)C(=O)O)c(Cl)cc1Cl` [Example 74, (2S)-2-(2,4-dichloro-5-{[1,4-dimethyl-3-(trifluoromethyl)-1H-pyrazol-5-yl]oxy}phenoxy)propionic acid] in this work.
An EC50 of 9.9 nM was found for `CCc1c(C(F)(F)F)nn(C)c1Oc1cc(O[C@@H](C)C(=O)O)c(Cl)cc1Cl` [Example 76, (2S)-2-(2,4-dichloro-5-{[4-ethyl-1-methyl-3-(trifluoromethyl)-1H-pyrazol-5-yl]oxy}phenoxy)propionic acid] in this work.
An EC50 of 2 nM was found for `CCC/C=C/c1c(C)nn(C)c1Oc1cc(O[C@@H](C)C(=O)O)c(Cl)cc1Cl` [Example 89, (2S)-2-[2,4-dichloro-5-({1,3-dimethyl-4-[(1E)-1-penten-1-yl]-1H-pyrazol-5-yl}oxy)phenoxy]propionic acid] in this work.
An EC50 of 25 nM was found for `Cc1nn(C)c(Oc2cc(O[C@@H](C)C(=O)O)c(Cl)cc2Cl)c1/C=N/O` [Example 104, (2S)-2-[2,4-dichloro-5-({4-[(E)-(hydroxyimino)methyl]-1,3-dimethyl-1H-pyrazol-5-yl}oxy)phenoxy]propionic acid] in this work.
An EC50 of 120 nM was found for `Cc1nn(C)c(Oc2cc(O[C@@H](C)C(=O)O)c(Cl)cc2Cl)c1C#N` [Example 106, (2S)-2-{2,4-dichloro-5-[(4-cyano-1,3-dimethyl-1H-pyrazol-5-yl)oxy]phenoxy}propionic acid] in this work.
An EC50 of 10 nM was found for `Cc1nn(C)c(Sc2cc(O[C@@H](C)C(=O)O)c(Cl)cc2Cl)c1C` [Example 115, (2S)-2-{2,4-dichloro-5-[(1,3,4-trimethyl-1H-pyrazol-5-yl)thio]phenoxy}propionic acid] in this work.
An EC50 of 4.1 nM was found for `CON=Cc1c(C)nn(C)c1Oc1cc(O[C@@H](C)C(=O)O)c(Cl)cc1Cl` [Example 123, (2S)-2-[2,4-dichloro-5-({4-[(methoxyimino)methyl]-1,3-dimethyl-1H-pyrazol-5-yl}oxy)phenoxy]propionic acid] in this work.
An EC50 of 3.1 nM was found for `Cc1nn(C)c(Oc2cc(O[C@@H](C)C(=O)O)c(Cl)cc2Cl)c1C=NOCc1ccccc1` [Example 125, (2S)-2-{5-[(4-{[(benzyloxy)imino]methyl}-1,3-dimethyl-1H-pyrazol-5-yl)oxy]-2,4-dichlorophenoxy}propionic acid] in this work.
An EC50 of 9.9 nM was found for `Cc1nn(C)c(Sc2cc(O[C@@H](C)C(=O)O)c(Cl)cc2Cl)c1C#N` [Example 210, (2S)-2-{2,4-dichloro-5-[(4-cyano-1,3-dimethyl-1H-pyrazol-5-yl)thio]phenoxy}propionic acid] in this work.
An EC50 of 22 nM was found for `Cc1cc(Br)c(O[C@@H](C)C(=O)O)cc1Oc1c(C#N)c(C2CC2)nn1C` [Example 256, (2S)-2-{2-bromo-5-[(4-cyano-3-cyclopropyl-1-methyl-1H-pyrazol-5-yl)oxy]-4-methylphenoxy}propionic acid] in this work.
An EC50 of 17 nM was found for `CCNC(=O)OCCCc1c(C)nn(C)c1Oc1cc(O[C@@H](C)C(=O)O)c(Cl)cc1Cl` [Example 298, (2S)-2-(2,4-dichloro-5-{[4-(3-{[(ethylamino)carbonyl]oxy}propyl)-1,3-dimethyl-1H-pyrazol-5-yl]oxy}phenoxy)propionic acid] in this work.
